From patent US4780420A (Yale University, priority 1985, dated 1988)
Read-outs that look alike come from different tables or passages of the source.

Assays:
progesterone receptor [1] = molecular target: T1, progesterone receptor (Oryctolagus cuniculus, UniProt P06186); experiment: Progesterone receptor assay: competition with [^3 H]R5020 binding; design: species or system rabbit
T1 construct: On the fifth day the uterus was excised, weighed and homogenized; from tissue
T1 sequence (P06186 1-930): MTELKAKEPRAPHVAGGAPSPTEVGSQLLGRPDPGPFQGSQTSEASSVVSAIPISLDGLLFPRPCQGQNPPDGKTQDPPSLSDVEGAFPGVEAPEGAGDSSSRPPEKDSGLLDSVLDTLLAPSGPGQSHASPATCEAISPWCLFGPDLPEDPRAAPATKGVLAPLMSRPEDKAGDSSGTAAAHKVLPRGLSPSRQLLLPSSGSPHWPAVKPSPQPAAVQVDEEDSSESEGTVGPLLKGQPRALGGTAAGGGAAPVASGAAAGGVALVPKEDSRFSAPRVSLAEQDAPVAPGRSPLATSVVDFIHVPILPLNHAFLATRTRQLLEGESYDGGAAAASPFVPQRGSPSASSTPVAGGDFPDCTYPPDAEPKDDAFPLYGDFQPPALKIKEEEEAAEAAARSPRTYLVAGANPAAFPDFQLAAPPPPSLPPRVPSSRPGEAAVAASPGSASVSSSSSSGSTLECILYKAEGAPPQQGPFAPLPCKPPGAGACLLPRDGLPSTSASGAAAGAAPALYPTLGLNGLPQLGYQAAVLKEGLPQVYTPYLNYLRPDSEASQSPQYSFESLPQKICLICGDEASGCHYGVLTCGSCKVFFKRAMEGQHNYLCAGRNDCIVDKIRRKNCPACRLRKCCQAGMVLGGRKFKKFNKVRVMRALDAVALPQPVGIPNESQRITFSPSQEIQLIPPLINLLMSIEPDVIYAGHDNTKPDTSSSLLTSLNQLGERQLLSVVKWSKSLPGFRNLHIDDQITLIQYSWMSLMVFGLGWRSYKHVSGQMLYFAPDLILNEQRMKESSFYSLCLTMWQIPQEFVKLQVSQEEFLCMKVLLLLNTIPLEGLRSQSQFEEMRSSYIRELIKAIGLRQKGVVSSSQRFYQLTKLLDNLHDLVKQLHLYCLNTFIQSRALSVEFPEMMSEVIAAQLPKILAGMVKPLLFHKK
Procedure: On the fifth day the uterus was excised, weighed and homogenized at 0° C. in 1.5 volumes of iced buffer containing: 1 mM dithiothreitol, 0.15 mM Na2 EDTA, 30% glycerol, 20 mM sodium molybdate, 10 mM Tris/HCl, pH 7.4 (4° C.). Homogenization was accomplished with three 10 second bursts of Polytron homogenizer. The homogenate was centrifuged at 3,000×g for 10 min. and the resulting supernatant was centrifuged at 100,000×g for 1 hour. The final supertant (cytosol) was diluted with homogenization buffer to afford 20-40% binding of a trace of [^3 H]R5020 (90 Ci/mMol), 10,000 dpm, and 50 μl of the appropriate radioinert compound. Non-specific binding was evaluated in tubes containing 2 μM R5020. After incubating at 4° C. overnight, free and bound steroids were separated by the addition of 100 μl of a stirred suspension of charcoal (5 mg/ml) in 10 mM Tris-HCl, pH 7.4 (4° C.), 0.15 mM Na2 EDTA. After mixing and standing on ice for 10 min., the tubes were centrifuged at 1500×g for 10 mins. and the "bound" radioactivity, in a 0.15 ml aliquot of the supernatant, was measured in a liquid scintillation counter.
In FIG. 1, Bo is the specifically bound [^3 H]R5020 alone and b is the specifically bound [^3 H]R5020 in the presence of the designated concentration of competitor. […] In Table 1 below, the values in parenthesis are the number of complete experiments which were conducted; the binding constants are means±SEM.

estrogen receptor = conditions: Hansen et al., Jogoda et al.; cited from earlier work
[2] = in vivo; cited from earlier work
progesterone receptor [3] = molecular target: T1, progesterone receptor; experiment: Competition of a series of steroids with [^3 H]R5020 and [^125 I]EVNT (specificity); type: binding, rabbit; conditions: for competing for sites with either ligand (in words): [^3 H]R5020 and [^125 I]EVNT; for activity at 0.003 µM: competitor 3 nM; for activity at 0.1 µM: competitor 100 nM
Procedure: To be sure that [^125 I]EVNT and [^3 H]R5020 bound with similar specificities, experiments were performed in which a series of steroids competed with the two differently labelled ligands.
Bo is dpm specifically bound when
B is dpm bound in the presence of […]

progesterone receptor [4] = molecular target: T1, progesterone receptor; experiment: Saturation and Scatchard analysis of the progesterone receptor with [^125 I]EVNT and [^3 H]R5020; type: binding, rabbit; conditions: for slope and intercept of the Scatchard plots, i.e. -Ka and the binding capacity (in words): FIG. 3, R5020 vs EVNT
[5] = Storage stability by thin layer chromatography; type: physicochemical; conditions: 4° C., 10% ethanol in benzene
Procedure: The radioactive product, [^125 I]EVNT, was stored at 4° C. in the alcoholic benzene solution.

[6] = radioligand [^3 H]R5020 (0.67 nM), read-out: B/Bo × 10^2
[7] = radioligand [^125 I]EVNT (0.18 nM), read-out: B/Bo × 10^2
[8] = read-out: B/Bo × 10^2, radioligand [^3 H]R5020 (0.67 nM)
[9] = read-out: B/Bo × 10^2, radioligand [^125 I]EVNT (0.18 nM)
[10] = estrogen stimulated rabbit uterine cytosol, five experiments

C[C@]12CC[C@H]3[C@@H](CCC4=CC(=O)CC[C@@H]43)[C@@H]1CC[C@@]2(O)/C=C\I [ZVNT, Z-17α-(2-iodovinyl)-4-estrene-17β-ol-3-one]
Ki (progesterone receptor [1]): 1.81 nM
binding to the progesterone receptor (in words) (progesterone receptor [1]; listed as Z 17α-(2-iodovinyl) analog of 19-nortestosterone): bind the progesterone receptor with high affinity
binding to the progesterone receptor (in words) (progesterone receptor [1]; listed as Z isomer): somewhat greater affinity for the progesterone receptor

C[C@]12CC[C@@H]3c4ccc(O)cc4CC[C@H]3[C@@H]1CC[C@@]2(O)/C=C/I [E-17α-[2-iodovinyl]analogs of estradiol]
binding to the estrogen receptor (in words) (estrogen receptor): bind to the estrogen receptor
concentration in estrogen target tissues (in words) [2]: concentrate in estrogen target tissues

C[C@]12CCC(=O)C=C1CC[C@@H]1[C@@H]2[C@@H](O)C[C@@]2(C)[C@H]1CC[C@]2(O)C(=O)CO [Cortisol]
competing for sites with either ligand (in words) (progesterone receptor [3]): ineffective in competing for sites with either ligand
activity at 0.003 µM (progesterone receptor [3]; [6]): 98%
activity at 0.1 µM (progesterone receptor [3]; [6]): 106%
activity at 0.003 µM (progesterone receptor [3]; [7]): 100%
activity at 0.1 µM (progesterone receptor [3]; [7]): 102%

C[C@]12CC[C@H]3[C@@H](CCC4=CC(=O)CC[C@@]43C)[C@@H]1CC[C@@H]2O [Testosterone]
competing for sites with either ligand (in words) (progesterone receptor [3]): ineffective in competing for sites with either ligand
activity at 0.003 µM (progesterone receptor [3]; [8]): 100%
activity at 0.1 µM (progesterone receptor [3]; [8]): 105%
activity at 0.003 µM (progesterone receptor [3]; [9]): 101%
activity at 0.1 µM (progesterone receptor [3]; [9]): 98%

C[C@]12CC[C@H]3[C@@H](CCC4=CC(=O)CC[C@@H]43)[C@@H]1CC[C@@]2(O)/C=C/I [EVNT, E-17α-(2-iodovinyl)-4-estrene-17β-ol-3-one]
slope and intercept of the Scatchard plots, i.e. -Ka and the binding capacity (in words) (progesterone receptor [4]): almost the same
level of non-specific binding (in words) (progesterone receptor [4]; FIGS. 2A and 2B): satisfactory and almost identical to that seen with R5020
competing for sites with either ligand (in words) (progesterone receptor [3]): substantial competition
activity at 0.003 µM (progesterone receptor [3]; [8]): 42%
activity at 0.1 µM (progesterone receptor [3]; [8]): 0%
activity at 0.003 µM (progesterone receptor [3]; [9]): 74%
activity at 0.1 µM (progesterone receptor [3]; [9]): 0%
Ki (progesterone receptor [1]): 4.26 ± 0.94 nM
binding to the progesterone receptor (in words) (progesterone receptor [1]): bind the progesterone receptor with high affinity

CCC(=O)[C@@]1(C)CC[C@H]2[C@@H]3CCC4=CC(=O)CCC4=C3CC[C@@]21C [R5020, 17α,21-dimethyl-19-nor-4,9-pregnadiene-3,20-dione]
slope and intercept of the Scatchard plots, i.e. -Ka and the binding capacity (in words) (progesterone receptor [4]): almost the same
competing for sites with either ligand (in words) (progesterone receptor [3]): substantial competition
activity at 0.003 µM (progesterone receptor [3]; [6]): 34%
activity at 0.1 µM (progesterone receptor [3]; [6]): 0%
activity at 0.003 µM (progesterone receptor [3]; [7]): 74%
activity at 0.1 µM (progesterone receptor [3]; [7]): 0%
Kd (progesterone receptor [1]; R5020, footnote *Kd, rabbit uterine cytosol, mean±SEM (5 experiments)): 1.05 ± 0.19 nM

C[C@]12CC[C@H]3[C@@H](CCC4=CC(=O)CC[C@@H]43)[C@@H]1CC[C@@]2(O)/C=C/[125I] [[^125 I]EVNT]
Kd (progesterone receptor [4]): 1.05 nM
binding capacity (progesterone receptor [4]; [10]): 921 pM
stable for a period of at least [5]: 2-3 months

C[C@]12CC[C@H]3[C@@H](CCC4=CC(=O)CC[C@@H]43)[C@@H]1C[C@@H](I)[C@@H]2O [INT, 16α-Iodo-4-estrene-17β-ol-3-one]
Ki (progesterone receptor [1]): 39.8 nM
binding to the progesterone receptor (in words) (progesterone receptor [1]): bind the progesterone receptor with high affinity

C[C@]12CCC(=O)C[C@@H]1CC[C@@H]1[C@@H]2CC[C@]2(C)[C@@H](O)CC[C@@H]12 [5α-DHT, 5α-dihydrotestosterone]
competing for sites with either ligand (in words) (progesterone receptor [3]): ineffective in competing for sites with either ligand
activity at 0.003 µM (progesterone receptor [3]; [8]): 101%
activity at 0.1 µM (progesterone receptor [3]; [8]): 95%
activity at 0.003 µM (progesterone receptor [3]; [9]): 100%
activity at 0.1 µM (progesterone receptor [3]; [9]): 91%

CC(=O)[C@H]1CC[C@H]2[C@@H]3CCC4=CC(=O)CC[C@]4(C)[C@H]3CC[C@]12C [Progesterone]
competing for sites with either ligand (in words) (progesterone receptor [3]): substantial competition
activity at 0.003 µM (progesterone receptor [3]; [6]): 94%
activity at 0.1 µM (progesterone receptor [3]; [6]): 37%
activity at 0.003 µM (progesterone receptor [3]; [7]): 91%
activity at 0.1 µM (progesterone receptor [3]; [7]): 22%

C[C@@H]1C[C@H]2[C@@H]3CCC4=CC(=O)C=C[C@]4(C)[C@@]3(F)[C@@H](O)C[C@]2(C)[C@@]1(O)C(=O)CO [Dexamethasone]
competing for sites with either ligand (in words) (progesterone receptor [3]): ineffective in competing for sites with either ligand
activity at 0.003 µM (progesterone receptor [3]; [6]): 103%
activity at 0.1 µM (progesterone receptor [3]; [6]): 101%
activity at 0.003 µM (progesterone receptor [3]; [7]): 96%
activity at 0.1 µM (progesterone receptor [3]; [7]): 100%

CCC(=O)[C@@]1(C)CC[C@H]2[C@@H]3CCC4=CC(=O)CCC4=C3CC[C@@]21C [[^3 H]R5020, [^3 H]17α,21-dimethyl-19-nor-4,9-pregnadiene-3,20-dione]
binding capacity (progesterone receptor [4]; [10]): 666 ± 198 pM
Kd (progesterone receptor [4]; estrogen stimulated rabbit uterine cytosol, five experiments, ± SEM, read-out: Association constant Ka (converted)): 0.8 nM
